Key:
[1] = Liver microsome stability; type: in vitro ADME, mouse; conditions: amount of substrate remaining; compound 1 μM, 30 minutes, 37° C., NADPH
Method: (§1) The stability of liver microsomes due to the compounds prepared according to Examples 1 to 175 was confirmed. Specifically, four types of liver microsomes (human, dog, rat, and mouse, each 0.25 mg/mL), a 0.1 M phosphate buffer solution (pH 7.4), and each of the compounds at a concentration of 1 μM were mixed and pre-cultured at 37° C. for 5 minutes and further cultured at 37° C. for 30 minutes together with an NADPH generation system solution added thereto. Thereafter, the reaction was terminated by adding an acetonitrile solution containing an internal standard material (chloropropamide) and centrifuged for 5 minutes (14,000 rpm, 4° C.), and then a supernatant was injected into an LC-MS/MS system for analysis of substrate drugs to thereby evaluate metabolic stability due to 8 types of compounds.
(§2) The amount of the substrate remaining after the reaction was analyzed using the Shimadzu Nexera XR system and TSQ Vantage (Thermo). In an HPLC column, Kinetex XB-C18 (2.1 mm×100 mm, particle size of 2.6 μm; Phenomenex, USA) was used, and mobile phases were (A) distilled water containing 0.1% formic acid and (B) acetonitrile containing 0.1% formic acid. Analyst software (version 1.6.3) and Xcalibur (version 1.6.1) were used for data analysis.

[2] = Liver microsome stability; type: in vitro ADME, human; conditions: amount of substrate remaining; compound 1 μM, 30 minutes, 37° C., NADPH
Method: as §1, §2

CYP1A2 = biological target: T1, CYP1A2 (Homo sapiens, UniProt P05177); assay: Inhibitory effect on CYP coenzyme activity, human liver microsomes; type: in vitro ADME; conditions: compound 10 μM; human liver microsomes 0.25 mg/mL; substrate phenacetin; 15 minutes
T1 construct: human liver microsomes (0.25 mg/mL); from tissue; host or cells: human liver microsomes
T1 sequence (P05177 1-516): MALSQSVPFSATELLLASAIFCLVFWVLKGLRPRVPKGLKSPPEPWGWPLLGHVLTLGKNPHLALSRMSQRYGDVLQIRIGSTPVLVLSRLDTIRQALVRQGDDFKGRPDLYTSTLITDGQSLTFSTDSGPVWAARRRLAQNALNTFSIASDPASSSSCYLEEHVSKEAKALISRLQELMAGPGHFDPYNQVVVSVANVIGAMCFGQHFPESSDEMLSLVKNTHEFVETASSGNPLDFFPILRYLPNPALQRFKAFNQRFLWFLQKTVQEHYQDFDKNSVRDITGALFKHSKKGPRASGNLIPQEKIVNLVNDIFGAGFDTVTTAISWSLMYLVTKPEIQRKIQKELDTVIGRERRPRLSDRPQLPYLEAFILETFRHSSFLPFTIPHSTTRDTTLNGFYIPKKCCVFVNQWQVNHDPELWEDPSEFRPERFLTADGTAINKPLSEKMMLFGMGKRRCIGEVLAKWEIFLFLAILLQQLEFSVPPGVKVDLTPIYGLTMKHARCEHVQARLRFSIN
Method: (§3) The inhibitory effects of the compounds prepared according to Examples 1 to 175 on CYP coenzyme activity were identified. Specifically, human liver microsomes (0.25 mg/mL), a 0.1 M phosphate buffer solution (pH 7.4), a substrate drug cocktail of five types of drug metabolism enzymes (50 μM phenacetin, 10 μM diclofenac, 100 μM S-mephenytoin, 5 μM dextromethorphan, and 2.5 μM midazolam), and the compound at a concentration of 0 μM or 10 μM were mixed and pre-cultured at 37° C. for 5 minutes, and then further cultured at 37° C. for 15 minutes together with an NADPH generation system solution added thereto. Thereafter, the reaction was terminated by adding an acetonitrile solution containing an internal standard material (terfenadine) and centrifuged for 5 minutes (14,000 rpm, 4° C.), and then a supernatant was injected into an LC-MS/MS system for simultaneous analysis of metabolites of the substrate drugs to thereby evaluate the inhibitory effects on drug metabolism.
(§4) Metabolites of each CYP coenzyme indicator drug generated through the reaction were analyzed using the Shimadzu Nexera XR system and TSQ Vantage (Thermo). In an HPLC column, Kinetex C18 (2.1 mm×100 mm, 2.6 μm, particle size; Phenomenex, USA) was used, and mobile phases were (A) distilled water containing 0.1% formic acid and (B) acetonitrile containing 0.1% formic acid, and a gradient program shown in Table 3 was applied thereto.
(§5) The generated metabolites were quantified using a multiple reaction monitoring (MRM) quantification mode, and Xcalibur (version 1.6.1) was used for data analysis. Inhibitory effects of the novel compound prepared according to the examples of the present invention on CYP coenzyme activity are shown in Table 4 below.

CYP2D6 = biological target: T2, CYP2D6 (Homo sapiens, UniProt P10635); assay: as above; type: in vitro ADME; conditions: compound 10 μM; human liver microsomes 0.25 mg/mL; substrate dextromethorphan; 15 minutes
T2 construct: human liver microsomes (0.25 mg/mL); from tissue; host or cells: human liver microsomes
T2 sequence (P10635 whole entry): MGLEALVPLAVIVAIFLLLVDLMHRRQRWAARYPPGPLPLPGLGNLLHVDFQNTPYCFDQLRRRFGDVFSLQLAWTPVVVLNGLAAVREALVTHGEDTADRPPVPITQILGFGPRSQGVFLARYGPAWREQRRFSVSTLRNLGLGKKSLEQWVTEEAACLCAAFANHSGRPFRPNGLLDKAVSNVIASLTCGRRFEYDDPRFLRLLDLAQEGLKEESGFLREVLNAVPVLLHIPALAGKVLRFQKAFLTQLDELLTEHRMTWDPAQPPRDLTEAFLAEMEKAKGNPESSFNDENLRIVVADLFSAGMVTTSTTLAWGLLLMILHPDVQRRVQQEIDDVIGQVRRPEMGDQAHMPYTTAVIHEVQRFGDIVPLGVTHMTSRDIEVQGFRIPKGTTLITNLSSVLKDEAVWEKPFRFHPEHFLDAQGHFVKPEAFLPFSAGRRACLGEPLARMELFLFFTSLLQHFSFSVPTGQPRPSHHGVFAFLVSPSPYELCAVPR
Method: as §3, §4, §5

CYP2C9 = biological target: T3, CYP2C9 (Homo sapiens, UniProt P11712); assay: as above; type: in vitro ADME; conditions: compound 10 μM; human liver microsomes 0.25 mg/mL; substrate diclofenac; 15 minutes
T3 construct: human liver microsomes (0.25 mg/mL); from tissue; host or cells: human liver microsomes
T3 sequence (P11712 whole entry): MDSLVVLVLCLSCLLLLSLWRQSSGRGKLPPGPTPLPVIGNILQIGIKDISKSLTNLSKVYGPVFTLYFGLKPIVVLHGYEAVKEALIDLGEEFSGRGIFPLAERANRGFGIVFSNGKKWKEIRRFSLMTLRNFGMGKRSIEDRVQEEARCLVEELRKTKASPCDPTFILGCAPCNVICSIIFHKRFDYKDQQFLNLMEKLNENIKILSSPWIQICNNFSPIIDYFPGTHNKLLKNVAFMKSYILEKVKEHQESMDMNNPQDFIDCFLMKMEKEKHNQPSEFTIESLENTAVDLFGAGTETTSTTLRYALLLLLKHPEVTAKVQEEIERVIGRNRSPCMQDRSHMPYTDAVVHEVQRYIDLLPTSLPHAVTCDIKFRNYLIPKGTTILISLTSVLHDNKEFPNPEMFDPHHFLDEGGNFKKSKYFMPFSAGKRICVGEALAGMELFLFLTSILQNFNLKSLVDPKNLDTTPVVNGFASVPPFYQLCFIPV
Method: as §3, §4, §5

CYP3A4 = biological target: T4, CYP3A4 (Homo sapiens, UniProt P08684); assay: as above; type: in vitro ADME; conditions: compound 10 μM; human liver microsomes 0.25 mg/mL; substrate midazolam; 15 minutes
T4 construct: human liver microsomes (0.25 mg/mL); from tissue; host or cells: human liver microsomes
T4 sequence (P08684 whole entry): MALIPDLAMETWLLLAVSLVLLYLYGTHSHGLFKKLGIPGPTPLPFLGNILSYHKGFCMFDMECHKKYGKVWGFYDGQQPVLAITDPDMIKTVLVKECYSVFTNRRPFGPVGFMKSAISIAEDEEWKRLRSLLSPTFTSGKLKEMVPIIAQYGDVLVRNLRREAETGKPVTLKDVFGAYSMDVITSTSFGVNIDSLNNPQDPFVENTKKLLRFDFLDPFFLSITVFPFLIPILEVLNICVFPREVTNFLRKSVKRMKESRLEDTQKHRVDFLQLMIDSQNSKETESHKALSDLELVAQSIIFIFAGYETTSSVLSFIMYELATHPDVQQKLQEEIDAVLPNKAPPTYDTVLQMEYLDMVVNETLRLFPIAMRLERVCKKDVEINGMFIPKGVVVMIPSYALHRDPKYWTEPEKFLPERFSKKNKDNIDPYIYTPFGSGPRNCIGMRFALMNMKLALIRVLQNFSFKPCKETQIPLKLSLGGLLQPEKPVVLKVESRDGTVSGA
Method: as §3, §4, §5

CYP2C19 = biological target: T5, CYP2C19 (Homo sapiens, UniProt P33261); assay: as above; type: in vitro ADME; conditions: compound 10 μM; human liver microsomes 0.25 mg/mL; substrate S-mephenytoin; 15 minutes
T5 construct: human liver microsomes (0.25 mg/mL); from tissue; host or cells: human liver microsomes
T5 sequence (P33261 whole entry): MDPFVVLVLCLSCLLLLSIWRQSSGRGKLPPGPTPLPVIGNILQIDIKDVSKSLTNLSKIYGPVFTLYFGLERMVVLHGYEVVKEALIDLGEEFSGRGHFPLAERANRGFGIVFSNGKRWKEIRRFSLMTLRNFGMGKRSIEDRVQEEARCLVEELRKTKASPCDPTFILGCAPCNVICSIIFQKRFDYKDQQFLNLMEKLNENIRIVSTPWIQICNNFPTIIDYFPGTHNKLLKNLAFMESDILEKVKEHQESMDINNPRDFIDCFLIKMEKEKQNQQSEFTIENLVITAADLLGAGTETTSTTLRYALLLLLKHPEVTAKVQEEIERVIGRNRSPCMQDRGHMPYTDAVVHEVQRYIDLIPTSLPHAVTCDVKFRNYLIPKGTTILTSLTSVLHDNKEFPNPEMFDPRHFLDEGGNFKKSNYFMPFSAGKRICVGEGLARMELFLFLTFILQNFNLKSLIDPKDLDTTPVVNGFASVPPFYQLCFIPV
Method: as §3, §4, §5

tau protein = biological target: T6, tau protein (Homo sapiens, UniProt P10636); assay: Tau-BiFC cell model: inhibition of tau protein aggregation; type: cell-based; conditions: for remaining activity at 3 µM / remaining activity at 10 µM: 48 h, Forskolin-only group = 100% tau protein-aggregated state; for remaining activity at 3 µM: compounds marked *: measured at 3 μM, read-out: Response; for IC50: Tau BiFC in cells, with Forskolin 30 μM, 48 hours; for remaining activity at 10 µM: compound 10 μM, BiFC fluorescence, read-out: Response (% @10 μM)
T6 construct: fused on or other part: Split fluorescent-protein halves for BiFC are fused to tau; In the published tau-BiFC line these are Venus VN173 and VC155
T6 sequence (P10636 2-441 isoform P10636-8 limits assumed): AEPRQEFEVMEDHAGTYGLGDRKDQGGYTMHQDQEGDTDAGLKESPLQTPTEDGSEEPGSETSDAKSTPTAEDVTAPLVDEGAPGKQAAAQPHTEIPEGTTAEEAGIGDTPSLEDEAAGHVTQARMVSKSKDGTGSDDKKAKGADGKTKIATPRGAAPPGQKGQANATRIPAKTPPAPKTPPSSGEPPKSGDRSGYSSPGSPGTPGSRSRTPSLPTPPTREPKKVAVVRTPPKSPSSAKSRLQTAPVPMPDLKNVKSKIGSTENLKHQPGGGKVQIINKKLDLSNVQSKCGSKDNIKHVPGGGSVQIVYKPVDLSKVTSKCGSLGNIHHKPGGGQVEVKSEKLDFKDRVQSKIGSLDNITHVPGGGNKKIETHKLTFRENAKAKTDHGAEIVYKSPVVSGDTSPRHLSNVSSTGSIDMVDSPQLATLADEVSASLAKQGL
In short: (§6)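 Tau-BiFC cells were exposed for 48 h to compound (1, 3, 10 μM for screening; 0.03–30 μM for dose-response) plus 30 μM Forskolin to induce aggregation. BiFC fluorescence was normalised to Forskolin-only minus untreated controls, with IC50 from nonlinear regression. Viability was Hoechst-stained nuclei counts relative to Forskolin-only wells.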

[3] = Liver microsome stability; type: in vitro ADME, rat; conditions: amount of substrate remaining; compound 1 μM, 30 minutes, 37° C., NADPH
Method: as §1, §2

Tau-BiFC cells = assay: Cell viability (cytotoxicity) in tau-BiFC cells, count of stained nuclei; type: cell-based; conditions: Forskolin-only group = 100% cell viability; for Cell viability: compounds marked *: measured at 3 μM; for Cell viability (% @10 μM): compound 10 μM
In short: as §6

Structure (SMILES) | Mouse (%) [1] [%] | Human (%) [2] [%] | CYP1A2 (CYP1A2) | CYP2D6 (CYP2D6) | CYP2C9 (CYP2C9) | CYP3A4 (CYP3A4) | CYP2C19 (CYP2C19) | remaining activity at 3 µM (tau protein) [%] | IC50 (tau protein) [nM] | Rat (%) [3] [%] | Cell viability (Tau-BiFC cells) [%] | remaining activity at 10 µM (tau protein) [%] | Cell viability (% @10 μM) (Tau-BiFC cells) [%]
Cc1cc(NN=C(C#N)C#N)ccc1OCc1cscn1 [Compound 152, (3-methyl-4-(thiazol-4-ylmethoxy)phenyl)carbonohydrazonoyl dicyanide] | 56.6 | 73.2 | 75.5 | 96.1 | 17.2 | >100 | 95 | -37 | 54 | 72.3 | 117 | – | –
Cc1cc(NN=C(C#N)C#N)ccc1OCc1nc2ccccc2[nH]1 [Compound 146, (4-((1H-benzo[d]imidazol-2-yl)methoxy)-3-methylphenyl)carbonohydrazonoyl dicyanide] | 70.5 | 64.6 | >100 | >100 | 47.2 | 82.7 | 88.4 | -35 | 444 | 31.1 | 133 | – | –
COc1cc(NN=C(C#N)C#N)ccc1OCc1cccnc1 [Compound 160, (3-methoxy-4-(pyridin-3-ylmethoxy)phenyl)carbonohydrazonoyl dicyanide] | – | – | 5.8 | 59.7 | 6.5 | 17.9 | 68.5 | -33 | 7 | – | 111 | – | –
Cc1cc(NN=C(C#N)C#N)ccc1OCc1nc2ccccc2o1 [Compound 156, (4-(benzo[d]oxazol-2-ylmethoxy)-3-methylphenyl)carbonohydrazonoyl dicyanide] | 41.3 | 49.3 | 95.9 | 96 | 54 | 92.6 | 83.7 | -29 | 50 | 55.5 | 124 | – | –
N#CC(C#N)=NNc1ccc(NC(=O)c2ccoc2)nc1 [Compound 110, (6-(furan-3-carboxamido)pyridin-3-yl)carbonohydrazonoyl dicyanide] | 92.4 | 89.7 | 88.3 | 91.3 | 77.1 | 98.9 | 88.4 | – | 790 | 81.8 | – | 0 | 160.5
Cc1cnc(COc2ccc(NN=C(C#N)C#N)cc2)cn1 [Compound 138, (4-((5-methylpyrazin-2-yl)methoxy)phenyl)carbonohydrazonoyl dicyanide] | – | – | 97.4 | 92.7 | 92.5 | 89.4 | >100 | 15 | – | – | 133 | – | –
COc1cc(NN=C(C#N)C#N)ccc1OCc1ccccc1 [Compound 153, (4-(benzyloxy)-3-methoxyphenyl)carbonohydrazonoyl dicyanide] | – | – | 67.9 | 90.7 | 44.1 | 98.9 | 100 | -43 | 37 | – | 122 | – | –
COc1cc(NN=C(C#N)C#N)ccc1OCc1cnccn1 [Compound 159, (3-methoxy-4-(pyrazin-2-ylmethoxy)phenyl)carbonohydrazonoyl dicyanide] | – | – | 42.4 | 86.1 | 54.7 | 82.1 | 88 | -40 | 7 | – | 114 | – | –
N#CC(C#N)=NNc1ccc(OCc2ncccn2)cc1 [Compound 136, (4-(pyrimidin-2-ylmethoxy)phenyl)carbonohydrazonoyl dicyanide] | – | – | 80.3 | 94.4 | 70 | 88.9 | 76.5 | – | 1440 | – | – | 0 | 95.7
Cc1ccc(C(=O)Nc2ccc(NN=C(C#N)C#N)cn2)cc1 [Compound 23, (6-(4-methylbenzamido)pyridin-3-yl)carbonohydrazonoyl dicyanide] | – | – | 85 | >100 | 40.6 | 83.3 | 82.5 | – | 130 | – | – | 0 | 114.2

Reference: patent US12649723B2, “Carbonohydrazonoyl dicyanide compounds comprising 2 or more aryl or heteroaryl connected via linker and use thereof” (KOREA INSTITUTE OF SCIENCE AND TECHNOLOGY, priority 2020, dated 2026)
